Source: ChEMBL document CHEMBL3808386, “Targeting Mitogen-Activated Protein Kinase-Activated Protein Kinase 2 (MAPKAPK2, MK2): Medicinal Chemistry Efforts To Lead Small Molecule Inhibitors to Clinical Trials” (J Med Chem, 2016)
One block for each molecule: values may come before it.

Legend:
Bile salt export pump = Bile salt export pump (Homo sapiens, UniProt O95342); test: Inhibition of human BSEP expressed in recombinant baculovirus infected insect Sf9 cell membrane vesicles assessed as [3H]-taurocholate transport preincubated for 5 mins followed by ATP or AMP addition measured after 5 mins by scintillation counting method
[1] = Inhibition of P-gp in MDCK-MDR1 cells after 30 mins by Calcein-AM assay; type: cell-based, Canis lupus familiaris
[2] = Inhibition of MRP2 in MDCK cells after 15 mins by Calcein-AM assay; type: cell-based, Canis lupus familiaris
[3] = target: T1, MAP kinase-activated protein kinase 2 (Homo sapiens, UniProt P49137); test: Inhibition of recombinant human N-terminal GST-tagged MK2 (46 to 400 residues) expressed in Escherichia coli assessed as reduction in recombinant human HSP27 phosphorylation at 200 uM after 30 mins by Western blot analysis relative to control
Target sequence in this assay (P49137 whole entry, looked up, the tested form may be a part): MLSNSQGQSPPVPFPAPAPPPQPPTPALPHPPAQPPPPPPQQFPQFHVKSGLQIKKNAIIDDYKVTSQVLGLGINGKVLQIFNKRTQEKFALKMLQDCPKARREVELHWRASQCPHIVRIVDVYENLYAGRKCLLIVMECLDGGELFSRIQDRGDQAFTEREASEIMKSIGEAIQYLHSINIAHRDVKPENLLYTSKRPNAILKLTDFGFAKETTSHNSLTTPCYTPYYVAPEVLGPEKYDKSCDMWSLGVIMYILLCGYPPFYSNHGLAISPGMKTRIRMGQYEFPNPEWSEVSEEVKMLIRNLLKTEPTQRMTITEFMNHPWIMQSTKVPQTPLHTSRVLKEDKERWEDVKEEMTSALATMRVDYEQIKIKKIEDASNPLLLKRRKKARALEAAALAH

Fibroblast [4] = test: Inhibition of TGF-beta1-induced collagen type 1 expression in serum-starved human keloid fibroblasts at 10 uM preincubated for 2 hrs followed TGF-beta1 addition measured after 24 hrs by Western blot analysis relative to control; type: functional
[5] = target: T1, MAP kinase-activated protein kinase 2; test: Inhibition of recombinant human N-terminal GST-tagged MK2 (46 to 400 residues) expressed in Escherichia coli in presence of radiolabelled ATP by radiometric assay
Target sequence in this assay (P49137 whole entry, the tested form may be a part): as the sequence (P49137 whole entry, looked up, the tested form may be a part) above

[6] = target: Mitogen-activated protein kinase 14 (Homo sapiens) (UniProt Q16539); test: Inhibition of full length recombinant human N-terminal GST-tagged p38alpha MAP kinase expressed in Escherichia coli assessed as residual activity at 30 uM in presence of radiolabelled ATP by radiometric assay relative to control
[7] = target: Myosin light chain kinase, smooth muscle (Homo sapiens) (UniProt Q15746); test: Inhibition of recombinant human N-terminal His6-tagged MLCK (1425 to 1771 residues) expressed in baculovirus infected Sf21 cells assessed as residual activity at 30 uM in presence of radiolabelled ATP by radiometric assay relative to control
[8] = target: T2, Interleukin-1 receptor-associated kinase 4 (Homo sapiens) (UniProt Q9NWZ3); test: Inhibition of full length recombinant human N-terminal His6-tagged IRAK4 expressed in baculovirus infected Sf21 cells assessed as residual activity at 30 uM in presence of radiolabelled ATP by radiometric assay relative to control
T2 sequence (whole entry): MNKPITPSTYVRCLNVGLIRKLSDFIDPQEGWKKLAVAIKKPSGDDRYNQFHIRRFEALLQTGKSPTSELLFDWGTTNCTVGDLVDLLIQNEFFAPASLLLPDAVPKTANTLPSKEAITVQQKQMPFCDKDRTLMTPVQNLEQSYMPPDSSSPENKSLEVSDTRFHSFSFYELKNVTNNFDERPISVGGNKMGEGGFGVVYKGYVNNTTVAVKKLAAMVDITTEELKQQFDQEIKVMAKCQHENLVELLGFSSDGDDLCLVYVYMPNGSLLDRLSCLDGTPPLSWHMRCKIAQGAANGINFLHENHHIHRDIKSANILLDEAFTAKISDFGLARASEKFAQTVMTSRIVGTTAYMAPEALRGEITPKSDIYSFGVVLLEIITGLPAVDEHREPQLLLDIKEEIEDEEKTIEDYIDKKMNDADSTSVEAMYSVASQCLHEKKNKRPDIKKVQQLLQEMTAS

[9] = target: RAC-beta serine/threonine-protein kinase (Homo sapiens) (UniProt P31751); test: Inhibition of recombinant human N-terminal His6-tagged PKBbeta (120 to 481 residues) expressed in baculovirus infected Sf21 cells assessed as residual activity at 30 uM in presence of radiolabelled ATP by radiometric assay relative to control
[10] = target: Protein kinase C delta type (Homo sapiens) (UniProt Q05655); test: Inhibition of recombinant human N-terminal His6-tagged amino acids 2-end of PKCdelta expressed in Sf21 cells assessed as residual activity at 30 uM in presence of radiolabelled ATP by radiometric assay relative to control
[11] = target: Rho-associated protein kinase 1 (Homo sapiens) (UniProt Q13464); test: Inhibition of recombinant human N-terminal His6-tagged ROCK1 (17 to 535 residues) expressed in baculovirus infected Sf21 cells assessed as residual activity at 30 uM in presence of radiolabelled ATP by radiometric assay relative to control
Fibroblast [12] = test: Inhibition of TGF-beta1-induced CTGF expression in serum-starved human keloid fibroblasts at 10 uM preincubated for 2 hrs followed TGF-beta1 addition measured after 24 hrs by Western blot analysis relative to control; type: functional
[13] = target: Mitogen-activated protein kinase 14 (Homo sapiens) (UniProt Q16539); test: Inhibition of full length recombinant human N-terminal GST-tagged p38alpha MAP kinase expressed in Escherichia coli assessed as residual activity at 300 uM in presence of radiolabelled ATP by radiometric assay relative to control
[14] = target: Myosin light chain kinase, smooth muscle (Homo sapiens) (UniProt Q15746); test: Inhibition of recombinant human N-terminal His6-tagged MLCK (1425 to 1771 residues) expressed in baculovirus infected Sf21 cells assessed as residual activity at 300 uM in presence of radiolabelled ATP by radiometric assay relative to control
[15] = target: T2, Interleukin-1 receptor-associated kinase 4 (Homo sapiens); test: Inhibition of full length recombinant human N-terminal His6-tagged IRAK4 expressed in baculovirus infected Sf21 cells assessed as residual activity at 300 uM in presence of radiolabelled ATP by radiometric assay relative to control
[16] = target: RAC-beta serine/threonine-protein kinase (Homo sapiens) (UniProt P31751); test: Inhibition of recombinant human N-terminal His6-tagged PKBbeta (120 to 481 residues) expressed in baculovirus infected Sf21 cells assessed as residual activity at 300 uM in presence of radiolabelled ATP by radiometric assay relative to control
[17] = target: Protein kinase C delta type (Homo sapiens) (UniProt Q05655); test: Inhibition of recombinant human N-terminal His6-tagged amino acids 2-end of PKCdelta expressed in Sf21 cells assessed as residual activity at 300 uM in presence of radiolabelled ATP by radiometric assay relative to control
[18] = target: Rho-associated protein kinase 1 (Homo sapiens) (UniProt Q13464); test: Inhibition of recombinant human N-terminal His6-tagged ROCK1 (17 to 535 residues) expressed in baculovirus infected Sf21 cells assessed as residual activity at 300 uM in presence of radiolabelled ATP by radiometric assay relative to control
U-937 = test: Inhibition of LPS-induced TNFalpha production in human U937 cells preincubated for 1 hr followed by LPS addition measured after 4 hrs by electro-chemiluminescence method; type: functional, cell-based
[19] = target: T1, MAP kinase-activated protein kinase 2; test: Inhibition of MK2 in human U937 cells assessed as reduction in LPS-stimulated HSP27 phosphorylation at Ser82 preincubated for 1 hr followed by LPS addition measured after 30 mins by Western blot analysis; type: cell-based, U-937
Target sequence in this assay (P49137 whole entry, the tested form may be a part): as the sequence (P49137 whole entry, looked up, the tested form may be a part) above

Rattus norvegicus [20] = test: Anti-inflammatory activity in po dosed Lewis rat model of LPS-induced acute endotoxemia inflammation assessed as inhibition of LPS-induced TNFalpha production administered through gavage pretreated for 4 hrs followed by LPS challenge measured after 90 mins by ELISA relative to control; type: functional
Rattus norvegicus [21] = test: Anti-inflammatory activity in Lewis rat model of Streptococcal cell wall-induced arthritis assessed as reduction in chronic hind paw swelling up to 100 mg/kg, po bid administered through gavage for 10 to 21 days measured on day 21 by displacement plethysmometric method relative to control; type: functional
[22] = Tmax in Sprague-Dawley rat plasma at 3 mg/kg, po; type: ADME, organism-based
[23] = Terminal half life in Sprague-Dawley rat plasma at 3 mg/kg, po; type: ADME, organism-based; settings: read-out: beta t1/2 (converted)
Canis familiaris [24] = test: Hepatotoxicity in beagle dog assessed as increase in serum bile acids at 750 mg/kg, po qd administered as single dose through gavage by LC-MS/MS analysis relative to control; type: toxicity, organism-based, Canis lupus familiaris; settings: in vivo
Canis familiaris [25] = test: Hepatotoxicity in beagle dog assessed as increase in total bilirubin at 750 mg/kg, po qd administered as single dose through gavage by LC-MS/MS analysis relative to control; type: toxicity, organism-based, Canis lupus familiaris; settings: in vivo

Chain of Mitogen-activated protein kinase 14 (Homo sapiens) (Q16539 whole entry, the tested form may be a part): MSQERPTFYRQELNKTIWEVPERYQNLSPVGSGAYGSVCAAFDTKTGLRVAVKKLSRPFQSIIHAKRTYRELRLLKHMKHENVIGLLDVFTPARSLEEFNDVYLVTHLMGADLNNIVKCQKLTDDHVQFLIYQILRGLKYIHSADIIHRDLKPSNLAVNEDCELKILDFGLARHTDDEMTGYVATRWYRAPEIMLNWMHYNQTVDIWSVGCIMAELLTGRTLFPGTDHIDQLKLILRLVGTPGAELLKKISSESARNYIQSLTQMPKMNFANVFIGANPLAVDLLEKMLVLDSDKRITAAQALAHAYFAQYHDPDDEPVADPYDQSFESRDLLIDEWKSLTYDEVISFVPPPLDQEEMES
Chain of Bile salt export pump (O95342 whole entry): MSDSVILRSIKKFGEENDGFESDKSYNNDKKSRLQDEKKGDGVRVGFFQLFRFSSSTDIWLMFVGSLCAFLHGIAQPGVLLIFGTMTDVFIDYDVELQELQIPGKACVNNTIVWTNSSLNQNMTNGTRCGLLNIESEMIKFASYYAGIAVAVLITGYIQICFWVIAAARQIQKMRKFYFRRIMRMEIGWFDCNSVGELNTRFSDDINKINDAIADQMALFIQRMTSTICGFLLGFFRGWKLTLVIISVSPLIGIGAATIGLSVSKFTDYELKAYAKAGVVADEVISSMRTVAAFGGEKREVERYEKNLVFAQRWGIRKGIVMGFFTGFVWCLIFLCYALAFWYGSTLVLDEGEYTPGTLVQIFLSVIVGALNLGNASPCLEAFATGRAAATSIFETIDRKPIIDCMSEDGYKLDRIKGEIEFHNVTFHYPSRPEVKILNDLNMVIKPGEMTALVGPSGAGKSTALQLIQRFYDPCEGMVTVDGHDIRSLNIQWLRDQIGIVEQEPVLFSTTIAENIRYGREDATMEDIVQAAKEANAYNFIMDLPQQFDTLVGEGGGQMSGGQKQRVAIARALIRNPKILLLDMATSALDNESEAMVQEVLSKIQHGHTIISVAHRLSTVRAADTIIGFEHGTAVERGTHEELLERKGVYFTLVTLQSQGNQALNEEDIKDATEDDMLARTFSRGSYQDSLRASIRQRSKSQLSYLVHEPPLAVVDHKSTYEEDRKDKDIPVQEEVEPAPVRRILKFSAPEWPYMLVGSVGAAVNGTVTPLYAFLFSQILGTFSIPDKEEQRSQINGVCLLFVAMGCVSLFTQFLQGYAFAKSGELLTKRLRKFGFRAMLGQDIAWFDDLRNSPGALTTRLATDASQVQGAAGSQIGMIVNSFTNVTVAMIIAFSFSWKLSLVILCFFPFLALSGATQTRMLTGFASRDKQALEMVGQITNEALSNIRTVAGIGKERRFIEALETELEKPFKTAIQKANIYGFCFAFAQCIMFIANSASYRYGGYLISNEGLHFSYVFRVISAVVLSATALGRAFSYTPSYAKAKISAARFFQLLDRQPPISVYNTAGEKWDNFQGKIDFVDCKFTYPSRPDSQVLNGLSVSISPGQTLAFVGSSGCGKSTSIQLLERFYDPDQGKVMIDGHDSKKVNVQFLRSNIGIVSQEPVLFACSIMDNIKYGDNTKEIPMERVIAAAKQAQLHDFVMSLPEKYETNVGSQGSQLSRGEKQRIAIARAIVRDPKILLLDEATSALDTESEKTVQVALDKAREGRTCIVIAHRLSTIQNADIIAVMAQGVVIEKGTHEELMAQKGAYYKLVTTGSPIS
Chain of Protein kinase C delta type (Homo sapiens) (Q05655 whole entry, looked up, the tested form may be a part): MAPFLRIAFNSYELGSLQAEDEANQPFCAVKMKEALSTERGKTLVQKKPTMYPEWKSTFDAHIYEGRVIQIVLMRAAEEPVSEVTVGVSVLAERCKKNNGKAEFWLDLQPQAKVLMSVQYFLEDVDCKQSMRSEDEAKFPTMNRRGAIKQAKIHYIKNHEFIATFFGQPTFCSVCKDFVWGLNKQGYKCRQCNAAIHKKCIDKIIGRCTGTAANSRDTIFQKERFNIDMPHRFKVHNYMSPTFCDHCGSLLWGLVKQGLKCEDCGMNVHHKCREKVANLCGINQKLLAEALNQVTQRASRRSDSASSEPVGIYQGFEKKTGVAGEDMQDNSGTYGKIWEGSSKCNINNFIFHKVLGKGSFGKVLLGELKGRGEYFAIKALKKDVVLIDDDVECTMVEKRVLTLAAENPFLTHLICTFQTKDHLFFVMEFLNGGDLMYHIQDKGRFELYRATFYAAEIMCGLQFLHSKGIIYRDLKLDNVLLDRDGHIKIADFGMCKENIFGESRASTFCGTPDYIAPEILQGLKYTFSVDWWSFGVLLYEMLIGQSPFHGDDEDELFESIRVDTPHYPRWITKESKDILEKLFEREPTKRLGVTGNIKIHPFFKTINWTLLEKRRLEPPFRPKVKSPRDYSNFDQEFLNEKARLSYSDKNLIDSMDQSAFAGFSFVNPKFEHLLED
Chain of RAC-beta serine/threonine-protein kinase (Homo sapiens) (P31751 whole entry, the tested form may be a part): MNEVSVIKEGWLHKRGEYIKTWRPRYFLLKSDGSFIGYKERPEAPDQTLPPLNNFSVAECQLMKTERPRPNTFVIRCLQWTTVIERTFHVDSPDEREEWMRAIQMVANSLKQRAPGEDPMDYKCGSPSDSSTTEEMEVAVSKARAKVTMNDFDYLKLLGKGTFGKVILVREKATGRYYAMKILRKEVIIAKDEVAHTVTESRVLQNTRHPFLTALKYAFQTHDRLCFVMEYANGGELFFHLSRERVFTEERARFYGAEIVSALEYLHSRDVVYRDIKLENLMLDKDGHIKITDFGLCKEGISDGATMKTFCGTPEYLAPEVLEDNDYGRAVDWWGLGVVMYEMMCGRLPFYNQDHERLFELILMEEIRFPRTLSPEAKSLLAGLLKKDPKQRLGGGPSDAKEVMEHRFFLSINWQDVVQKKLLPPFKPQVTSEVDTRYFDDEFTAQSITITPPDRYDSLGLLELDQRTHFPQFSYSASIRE
Chain of Rho-associated protein kinase 1 (Homo sapiens) (Q13464 2-1354 limits assumed): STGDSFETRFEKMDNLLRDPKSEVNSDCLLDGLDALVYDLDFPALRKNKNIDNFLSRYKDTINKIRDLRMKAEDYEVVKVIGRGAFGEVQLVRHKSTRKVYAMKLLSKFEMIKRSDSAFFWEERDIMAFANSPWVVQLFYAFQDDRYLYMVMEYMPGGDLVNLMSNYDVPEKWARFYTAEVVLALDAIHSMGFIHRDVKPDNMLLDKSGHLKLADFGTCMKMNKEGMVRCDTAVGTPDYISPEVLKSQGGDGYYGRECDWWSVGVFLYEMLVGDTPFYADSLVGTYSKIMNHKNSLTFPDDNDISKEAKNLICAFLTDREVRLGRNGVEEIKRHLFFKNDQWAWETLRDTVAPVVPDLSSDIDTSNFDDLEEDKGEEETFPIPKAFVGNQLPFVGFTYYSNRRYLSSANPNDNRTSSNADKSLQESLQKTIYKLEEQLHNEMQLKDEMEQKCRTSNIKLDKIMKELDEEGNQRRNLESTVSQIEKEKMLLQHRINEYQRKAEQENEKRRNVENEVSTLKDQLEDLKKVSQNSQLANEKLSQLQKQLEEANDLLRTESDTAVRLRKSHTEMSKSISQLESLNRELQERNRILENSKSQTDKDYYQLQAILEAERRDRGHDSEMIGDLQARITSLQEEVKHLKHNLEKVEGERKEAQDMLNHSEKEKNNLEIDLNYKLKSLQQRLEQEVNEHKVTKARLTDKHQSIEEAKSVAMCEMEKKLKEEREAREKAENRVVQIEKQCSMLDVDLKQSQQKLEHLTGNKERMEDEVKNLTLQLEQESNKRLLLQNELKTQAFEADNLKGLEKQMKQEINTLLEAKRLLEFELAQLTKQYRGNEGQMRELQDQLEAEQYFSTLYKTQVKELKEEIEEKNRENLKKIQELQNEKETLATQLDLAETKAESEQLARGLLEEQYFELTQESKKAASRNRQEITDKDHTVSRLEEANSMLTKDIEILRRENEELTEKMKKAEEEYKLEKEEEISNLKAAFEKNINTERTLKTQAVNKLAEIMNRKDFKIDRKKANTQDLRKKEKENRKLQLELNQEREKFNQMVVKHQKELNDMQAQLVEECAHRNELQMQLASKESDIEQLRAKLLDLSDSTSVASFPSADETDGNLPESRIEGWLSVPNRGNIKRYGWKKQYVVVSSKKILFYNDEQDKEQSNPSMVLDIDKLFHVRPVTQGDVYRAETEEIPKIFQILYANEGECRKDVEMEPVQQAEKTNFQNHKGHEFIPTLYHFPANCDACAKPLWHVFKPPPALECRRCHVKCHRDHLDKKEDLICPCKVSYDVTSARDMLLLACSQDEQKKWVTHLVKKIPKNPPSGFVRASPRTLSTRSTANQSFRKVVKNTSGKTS

Molecule: CC[C@H](C)[C@H](NC(=O)[C@H](CCCNC(=N)N)NC(=O)[C@H](CCCNC(=N)N)NC(=O)[C@H](CC(C)C)NC(=O)[C@H](Cc1c[nH]c2ccccc12)NC(=O)[C@H](C)NC(=O)[C@H](CCCCN)NC(=O)[C@@H](NC(=O)[C@H](CCCNC(=N)N)NC(=O)[C@H](CCCNC(=N)N)NC(=O)[C@H](CC(C)C)NC(=O)[C@@H](N)Cc1c[nH]c2ccccc12)[C@@H](C)CC)C(=O)N[C@@H](CCCCN)C(=O)N[C@@H](C)C(=O)N[C@@H](CC(C)C)C(=O)N[C@@H](CC(N)=O)C(=O)N[C@@H](CCCNC(=N)N)C(=O)N[C@@H](CCC(N)=O)C(=O)N[C@@H](CC(C)C)C(=O)NCC(=O)N[C@H](C(=O)N[C@@H](C)C(=O)N[C@@H](C)C(=O)O)C(C)C
inhibition at 10 µM (Fibroblast [4]): 76%
IC50 [5]: 0.74 µM
Activity [6]: 61%
Activity [7]: 4%
Activity [8]: 12%
Activity [9]: 18%
Activity [10]: 11%
Activity [11]: 0%
inhibition [3]: 80%
inhibition at 10 µM (Fibroblast [12]): 68%

Molecule: H-YARAAARQARAKALNRQLGVAA-OH
IC50 [5]: 5.8 µM
Activity [13]: 100%
Activity [14]: 66%
Activity [15]: 68%
Activity [16]: 96%
Activity [17]: 105%
Activity [18]: 95%

Molecule: Cc1ccc(-c2ccc3c(ccc4sc5c(c43)NC[C@@H](C)NC5=O)n2)cn1
IC50 (Bile salt export pump): 7 µM
IC50 (U-937): 0.15 µM
IC50 [19]: 0.201 µM
inhibition (INH) (Rattus norvegicus [20]): >90%
inhibition (INH) (Rattus norvegicus [21]): 80%
Tmax [22]: 0.167 h
half-life [23]: 9 h
Activity (Canis familiaris [24]): <= 25000%
Activity (Canis familiaris [25]): <= 25000%
IC50 [1]: 7 µM
IC50 [2]: 7 µM

Further lines, with some results ahead:

IC50 [1]: 7 µM
IC50 [2]: 7 µM
Molecule: COCCOCc1cccc(-c2ccc3c(ccc4sc5c(c43)NC[C@@H](C)NC5=O)n2)c1
IC50 (Bile salt export pump): 7 µM

inhibition [3]: 64%
Molecule: H-KKKALNRQLGVAA-OH
